This experiment has as its target T1, NPM1 C-end C+ (Homo sapiens, UniProt P06748).
T1 construct: the C-end domain (residues 225- 294); 6xHis (N); made in house; host or cells: E. coli BL21(DE3)
Nature of the experiment: Isothermal titration calorimetry, NPM1 C-end C+. To be noted: ITC. The format is binding. The text has this: To confirm a direct interaction of UCM-13369 with NPM1 and to address which domain of the protein would be responsible for binding the compound, pure protein samples of the pentameric N-end domain of NPM1, along with the C-terminal DNA-binding domains of WT and mutant NPM1 C+, were used in calorimetry assays. […] This is indicative of a lower diversity in the chemical environment of amide protons consistent with the previously reported protein unfolding.[29] […] On the other hand, the pentameric construct of the NPM1 N-end, which lacks the AML-related region, yielded a much lower binding affinity (KD ca. 100 μM range, Figure 3D).
ITC experiments were performed in a Nano ITC Low Volume (TA Instruments) at 25 °C. […]
The purity of the protein samples was checked by SDS–PAGE analysis (Figure S3) and protein quantification was performed using the Bradford protein assay.5 NPM molar concentration was expressed as the pentameric form for NPM1 WT N-end and as a monomer for NPM1 C-end WT and mutant. […]
After extraction with acetonitrile and acidification, samples were desalted and concentrated with C18 tips. Mass spectra were recorded in a Hybrid Quadrupole-Orbitrap™ Mass Spectrometer (Thermo Scientific, Waltham, Massachusetts, USA)
On the technique in general: ITC needs no label: the signal is the heat of the interaction.

Consider one compound from PMC11134387, “Cancer-Stem-Cell Phenotype-Guided Discovery of a Microbiota-Inspired Synthetic Compound Targeting NPM1 for Leukemia” (JACS Au, 2024).

T1 sequence (P06748 with tags, fused parts or gaps limits assumed): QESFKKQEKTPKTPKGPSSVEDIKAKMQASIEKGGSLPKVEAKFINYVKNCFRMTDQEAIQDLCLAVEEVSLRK

By Kd is commonly meant a measure of binding affinity in units of concentration. Low readings indicate a tighter complex, high ones a looser complex. In turn, `COc1ccc(C2Cc3[nH]c4ccccc4c3C(CCNCC3CC3)C2N)cc1` (centres unmarked) [4b, 4-{2-[(Cyclopropylmethyl)amino]ethyl}-2-(4-methoxyphenyl)-2,3,4,9-tetrahydro-1H-carbazol-3-amine] gave a Kd (25 °C, NPM1 C-end C+) of 15 µM. In addition, for the setting “C+ variant vs WT domain”, the “Higher affinity of NPM1 C-end C+ than WT domain” value amounted to 2 fold.
